The values below come from patent US6602514B1, “Use of ectoine or ectoine derivatives in cosmetic formulations” (Merck Patent GmbH, priority 1998, dated 2003).

SMILES strings stand for the structures.

Experiment [1] has as its system skin barrier (forearm skin of the subjects). The experiment in a line: In vivo determination of the transepidermal water loss (TEWL) following damage to the skin barrier by SDS treatment. Also on record: species or system human. Conditions: N=5; for TEWL after SDS stress: then 2% SDS, occlusion 24 h; for TEWL after ectoin treatment for 1 week: 2 mg/cm^2 twice daily, forearm; for TEWL before treatment: baseline, 22° C., 60% humidity. How it is done:
Using the skincare creams (0/W) comprising ectoin described in. Example 4, an in vivo determination of the transepidermal water loss (TEWL) following damage to the skin barrier by SDS treatment is carried out. Firstly, the skin of the subjects (N=5) on the forearm is treated for one week twice daily with the O/W emulsion (2 mg/cm^2) comprising 2% and 5% of ectoin and an emulsion without ectoin (placebo). In order to increase the TEWL artificially as a result of damage to the horny barrier, the skin is then treated with 80 μl of sodium dodecyl sulfate (SDS; 2% in water) in an aluminum chamber with occlusion for 24 h. The TEWL determination is carried out in a climatically controlled room at 22° C. and an atmospheric humidity of 60% using a TM210 TEWA meter. […] The values for FIG. 1 are given in Tab. 1.

Experiment [2] has as its system human erythrocytes. The experiment in a line: RBC test: membrane-stabilizing action on ectoin pretreated erythrocytes against SDS. It counts as cell-based. The method, then:
To determine the cell membrane- and protein-damaging action of surfactants, the RBC Test can, for example, be used. For this, the erythrocytes are incubated e.g. with sodium dodecyl sulfate (SDS), for example for a period of 10 minutes. SDS destabilizes the membrane of untreated cells such that the cells are partially lysed and their contents such as the hemoglobin are released. The hemoglobin released during cell-wall damage serves as an indicator for the spectrophotometric determination of the membrane damage by SDS. By reference to the hemoglobin released, it is possible to determine the number of destroyed erythrocytes.
Using an aqueous ectoin solution buffered in PBS buffer (22.2 mmol/l of disodium hydrogenphosphate, 5.6 mmol/l of potassium dihydrogenphosphate, 123.3 mmol/l of sodium chloride and 10 mmol/l of glucose), a determination of the membrane-stabilizing action of ectoin pretreated human erythrocytes against SDS is carried out. The RBC test is used here. The percentage membrane stabilization of cells pretreated with ectoin is determined.
Human erythrocytes (2×10^8 cells/ml) are treated for 1 hour with 0%, 0.1%, 0.5%, 1% and 5% of ectoin. The cells are then stressed for 10 min with 0 to 0.04% SDS solution. Then, spectrophotometry is used to determine how many cells have been lysed by reference to the free hemoglobin content. […] The experiment is carried out N=5 times.
In addition, human erythrocytes (2×10^8 cells/ml) are treated with 1% of ectoin for 0 (control), 6, 18 and 24 hours. The cells are then stressed for 10 min with 0 to 0.04% of SDS solution. Then, spectrophotometry is used to determine how many cells have been lysed by reference to the free hemoglobin content. […] The experiment is carried out N=5 times.

As to `CC1=N[C@H](C(=O)O)CCN1` [ectoin, (S)-1,4,5,6-tetrahydro-2-methyl-4-pyrimidecarboxylic acid], the “TEWL after SDS stress” value in experiment [1] (O/W emulsion with 2% of ectoin for 1 week) came out at 14.2 g/m^2/h; in experiment [1] (O/W emulsion with 5% of ectoin for 1 week) it was 10.8 g/m^2/h. Besides, the “TEWL after ectoin treatment for 1 week” value in experiment [1] (O/W emulsion with 2% of ectoin) and in experiment [1] (O/W emulsion with 5% of ectoin) was 5.6 g/m^2/h in each case. Also, the results for the TEWL before treatment in experiment [1] (test area for the O/W emulsion with 2% of ectoin) and in experiment [1] (test area for the O/W emulsion with 5% of ectoin) were 5.6 g/m^2/h and 5.1 g/m^2/h, respectively. The “dependence of the protective effect on ectoin concentration” value in experiment [2] (0.1%, 0.5%, 1%, 5% of ectoin, 1 hour, FIG. 3) is on record as “The higher the ectoin concentration, the greater the protective effect”. In experiment [2] (1% of ectoin for 6, 18, 24 hours, FIG. 4), the “dependence of the protective effect on duration of pretreatment” value was “The longer the cells are pretreated with ectoin, the greater the protective effect”. Also, in experiment [2] (1 hour pretreatment with 0.1-5% of ectoin, 10 min 0 to 0.04% SDS, FIG. 3), the “protection of erythrocytes against membrane damage by SDS” value was “protects the cells against damage by SDS”.
